Experimental data published in ChEMBL document CHEMBL5465560, “Selectivity Literature for EUbOPEN Chemogenomic Library” (2024).
pIC50: −log10 of the molar value. Blank lines part the entries; values can stand above or below the molecule they belong to.

Tests used:
[1] = molecular target: Nuclear receptor subfamily 1 group I member 2 (Homo sapiens, UniProt O75469); experiment: Selectivity interaction (Pregnane X Receptor (PXR, SXR) binding, human recombinant ) EUB0000877a NR1I2
[2] = molecular target: T1, Interleukin-1 receptor-associated kinase 3 (Homo sapiens) (UniProt Q9Y616); experiment: Selectivity interaction (ActivX KiNativ screen (kinase selectivity in THP-1 cell lysates)) EUB0000639a IRAK3; type: subcellular; settings: lysate, at 5 µM
T1 sequence (whole entry): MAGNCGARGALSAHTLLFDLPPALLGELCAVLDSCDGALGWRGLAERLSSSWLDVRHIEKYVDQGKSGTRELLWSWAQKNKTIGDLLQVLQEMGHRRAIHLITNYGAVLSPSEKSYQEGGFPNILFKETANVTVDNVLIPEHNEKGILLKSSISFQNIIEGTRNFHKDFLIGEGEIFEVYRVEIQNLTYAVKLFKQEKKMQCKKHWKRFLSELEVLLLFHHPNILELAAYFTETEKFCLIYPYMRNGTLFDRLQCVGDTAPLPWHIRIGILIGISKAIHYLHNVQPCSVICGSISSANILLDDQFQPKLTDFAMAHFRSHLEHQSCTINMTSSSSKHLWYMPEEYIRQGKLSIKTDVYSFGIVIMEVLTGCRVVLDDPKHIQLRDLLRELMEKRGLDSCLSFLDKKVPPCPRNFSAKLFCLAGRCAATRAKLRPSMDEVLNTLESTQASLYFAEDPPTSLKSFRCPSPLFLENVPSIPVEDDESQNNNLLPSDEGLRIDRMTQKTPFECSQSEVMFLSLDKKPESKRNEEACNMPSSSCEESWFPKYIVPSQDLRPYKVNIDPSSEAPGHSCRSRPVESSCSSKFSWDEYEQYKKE

[3] = molecular target: Ribosomal protein S6 kinase alpha-1 (Homo sapiens, UniProt Q15418); experiment: Selectivity interaction (ActivX KiNativ screen (kinase selectivity in THP-1 cell lysates)) EUB0000639a RPS6KA1; type: subcellular; settings: lysate, at 0.01 µM
[4] = molecular target: T2, Serine/threonine-protein kinase TAO1 (Homo sapiens) (UniProt Q7L7X3); experiment: Selectivity interaction (KinomeScan (DiscoverX)) EUB0000655a TAOK1; settings: at 10 µM
T2 sequence (whole entry): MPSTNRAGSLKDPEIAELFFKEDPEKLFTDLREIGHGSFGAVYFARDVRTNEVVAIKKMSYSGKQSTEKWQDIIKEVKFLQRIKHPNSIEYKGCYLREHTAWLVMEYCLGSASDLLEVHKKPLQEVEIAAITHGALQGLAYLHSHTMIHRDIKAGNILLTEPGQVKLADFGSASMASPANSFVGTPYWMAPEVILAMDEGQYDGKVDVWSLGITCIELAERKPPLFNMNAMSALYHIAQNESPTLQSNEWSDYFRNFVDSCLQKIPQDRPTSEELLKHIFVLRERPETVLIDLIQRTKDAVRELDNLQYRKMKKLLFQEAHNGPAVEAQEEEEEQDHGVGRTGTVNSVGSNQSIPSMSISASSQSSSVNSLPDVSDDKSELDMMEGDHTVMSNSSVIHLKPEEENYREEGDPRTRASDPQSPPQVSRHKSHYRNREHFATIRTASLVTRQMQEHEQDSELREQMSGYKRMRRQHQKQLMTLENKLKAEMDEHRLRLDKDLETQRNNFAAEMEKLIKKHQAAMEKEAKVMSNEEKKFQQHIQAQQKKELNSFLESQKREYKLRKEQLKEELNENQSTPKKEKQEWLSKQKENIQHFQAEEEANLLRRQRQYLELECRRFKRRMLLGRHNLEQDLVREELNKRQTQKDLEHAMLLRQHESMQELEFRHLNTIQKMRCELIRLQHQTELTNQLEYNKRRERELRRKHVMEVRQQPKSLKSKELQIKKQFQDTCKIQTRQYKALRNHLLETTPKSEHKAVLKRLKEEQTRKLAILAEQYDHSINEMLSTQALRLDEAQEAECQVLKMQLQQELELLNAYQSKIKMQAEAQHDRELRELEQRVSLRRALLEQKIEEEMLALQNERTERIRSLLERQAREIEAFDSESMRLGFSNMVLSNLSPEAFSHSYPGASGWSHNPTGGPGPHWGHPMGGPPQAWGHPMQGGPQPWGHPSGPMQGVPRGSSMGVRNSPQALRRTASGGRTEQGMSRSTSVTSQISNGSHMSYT

[5] = molecular target: Cyclin-dependent kinase 15 (Homo sapiens) (UniProt Q96Q40); experiment: Selectivity interaction (KinomeScan (DiscoverX)) EUB0000092b CDK15; settings: at 10 µM
[6] = molecular target: T3, cAMP-dependent protein kinase catalytic subunit PRKX (Homo sapiens) (UniProt P51817); experiment: Selectivity interaction (KinomeScan (DiscoverX)) EUB0000092b PRKX; settings: at 10 µM
T3 sequence (whole entry): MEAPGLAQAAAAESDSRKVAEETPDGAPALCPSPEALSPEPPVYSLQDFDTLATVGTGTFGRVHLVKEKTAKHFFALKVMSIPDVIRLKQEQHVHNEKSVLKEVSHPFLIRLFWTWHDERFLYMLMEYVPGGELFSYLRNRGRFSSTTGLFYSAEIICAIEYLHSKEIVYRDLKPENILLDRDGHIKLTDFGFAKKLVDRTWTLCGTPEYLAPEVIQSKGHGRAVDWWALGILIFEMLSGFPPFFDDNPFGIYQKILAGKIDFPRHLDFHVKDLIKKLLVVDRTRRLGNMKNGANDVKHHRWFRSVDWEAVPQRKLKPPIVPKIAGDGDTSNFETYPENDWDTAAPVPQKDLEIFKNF

[7] = system: Tyrosine-protein kinase ABL1 (Homo sapiens), P00519 [T315I]; experiment: Selectivity interaction (KinomeScan (DiscoverX)) EUB0000092b ABL1; settings: at 10 µM

Chain of Ribosomal protein S6 kinase alpha-1 (Q15418 whole entry): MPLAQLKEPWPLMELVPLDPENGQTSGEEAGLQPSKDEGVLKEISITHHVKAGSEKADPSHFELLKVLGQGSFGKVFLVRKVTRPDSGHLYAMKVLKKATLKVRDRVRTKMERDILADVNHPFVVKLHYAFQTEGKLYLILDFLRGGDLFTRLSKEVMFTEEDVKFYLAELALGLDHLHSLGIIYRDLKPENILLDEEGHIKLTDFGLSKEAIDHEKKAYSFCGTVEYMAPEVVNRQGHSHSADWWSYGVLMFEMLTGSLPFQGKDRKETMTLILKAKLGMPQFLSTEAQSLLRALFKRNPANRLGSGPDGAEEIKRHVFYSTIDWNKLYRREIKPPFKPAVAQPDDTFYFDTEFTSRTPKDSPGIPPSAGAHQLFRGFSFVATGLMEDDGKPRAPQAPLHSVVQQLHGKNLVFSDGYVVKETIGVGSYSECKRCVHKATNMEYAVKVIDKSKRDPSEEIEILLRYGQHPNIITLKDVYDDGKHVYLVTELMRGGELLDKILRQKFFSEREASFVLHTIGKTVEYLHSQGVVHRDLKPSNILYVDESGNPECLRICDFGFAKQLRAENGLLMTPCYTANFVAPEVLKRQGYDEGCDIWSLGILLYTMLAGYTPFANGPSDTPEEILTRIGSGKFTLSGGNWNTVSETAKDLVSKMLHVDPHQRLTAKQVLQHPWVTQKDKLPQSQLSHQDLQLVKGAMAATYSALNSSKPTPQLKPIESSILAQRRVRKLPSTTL
Chain of Nuclear receptor subfamily 1 group I member 2 (O75469 whole entry): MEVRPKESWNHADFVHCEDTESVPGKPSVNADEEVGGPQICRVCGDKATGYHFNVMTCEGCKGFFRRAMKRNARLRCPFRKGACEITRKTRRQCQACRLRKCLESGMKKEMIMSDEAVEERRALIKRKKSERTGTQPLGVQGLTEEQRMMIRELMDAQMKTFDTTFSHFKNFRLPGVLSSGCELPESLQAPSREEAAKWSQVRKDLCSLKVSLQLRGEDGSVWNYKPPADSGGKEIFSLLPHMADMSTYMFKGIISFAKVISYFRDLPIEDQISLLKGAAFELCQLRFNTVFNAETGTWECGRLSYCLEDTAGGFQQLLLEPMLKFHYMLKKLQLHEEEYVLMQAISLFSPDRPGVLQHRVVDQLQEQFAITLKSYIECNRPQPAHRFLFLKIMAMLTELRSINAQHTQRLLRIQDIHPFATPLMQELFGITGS
Chain of Cyclin-dependent kinase 15 (Homo sapiens) (Q96Q40 whole entry): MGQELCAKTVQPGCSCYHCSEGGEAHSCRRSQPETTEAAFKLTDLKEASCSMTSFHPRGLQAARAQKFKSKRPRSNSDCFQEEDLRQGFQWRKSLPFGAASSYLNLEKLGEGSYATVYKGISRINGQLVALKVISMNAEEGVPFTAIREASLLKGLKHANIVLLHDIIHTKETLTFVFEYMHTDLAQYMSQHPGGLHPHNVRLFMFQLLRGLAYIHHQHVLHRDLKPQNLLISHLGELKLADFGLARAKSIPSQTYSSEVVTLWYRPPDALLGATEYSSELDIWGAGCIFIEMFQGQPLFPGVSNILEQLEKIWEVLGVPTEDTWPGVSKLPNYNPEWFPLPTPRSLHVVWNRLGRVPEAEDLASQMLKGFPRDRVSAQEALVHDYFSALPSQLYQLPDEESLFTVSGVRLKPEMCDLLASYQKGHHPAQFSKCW

pIC50 [1]: < 4.52
SMILES: CCC(=O)N1CC[C@H](Nc2ncnc3c2CN(c2cnc(OC)c(C(F)(F)F)c2)CC3)C1 [LENIOLISIB]

% of inhibition [2]: 94.3%
% of inhibition [3]: -8.3%
SMILES: CC[C@@H]1[C@H](F)C(=O)N[C@@H]1COc1nccc2cc(C(N)=O)c(OC)cc12 [ZIMLOVISERTIB]

SMILES: CN(C)CCOc1ccc(-c2nc(-c3ccncc3)c(-c3ccc4c(c3)CC/C4=N\O)[nH]2)cc1
% of control [4]: 81%

SMILES: CCC(=O)N1CCN(c2ccc(-n3c(=O)ccc4cnc5ccc(-c6cnc7ccccc7c6)cc5c43)cc2C(F)(F)F)CC1
% of control [5]: 88%
% of control [6]: 83%
% of control [7]: 100%
